Measured values taken from article PMC6372667 (Experimental & Molecular Medicine, 2019).
Where two headings read alike, the source gives them in different places.

Legend:
B16F10 mouse melanoma = assay: MTT cytotoxicity assay, B16F10; type: cell-based; settings: 24 h
Description: (§1) Cytotoxicity was assessed using the MTT assay. Briefly, the cells were seeded into a 96-well plate at a density of 1×10^5 cells per well in 100 µL of corresponding media and incubated at 37 °C in an incubator under 5% CO2 tension for 24 h. The culture media were then replaced with 100 µL of fresh serum-free media in the presence of varied concentrations of pterosin derivatives, and cells were incubated for an additional 24 h. The control was treated with an equal amount of DMSO present in the assay for a 5 mM concentration. Then, 100 µL of MTT solution (0.5 mg/mL in Phosphate Buffered Saline (PBS)) was added to each culture. To measure the proportion of surviving cells, the media were replaced with 100 µL of DMSO 2 h after the administration of MTT solution. The absorbance was measured at 570 nm using a spectrophotometric plate reader (Molecular Devices, Sunnyvale, CA, USA).

[1] = molecular target: T1, BACE1 (human recombinant β-secretase) (Homo sapiens, UniProt P56817); assay: Kinetic analysis of BACE1 inhibition (Dixon and Lineweaver−Burk plots); type: biochemical; settings: for Inhibition type BACE1: Dixon and Lineweaver−Burk plots
Description: (§2) The Ki was determined by interpretation of the Dixon plot, with the value of the x-axis intercept taken as −Ki.
Dixon plots for BACE1 inhibition by pterosin derivatives.
Dixon plots for BACE1 inhibition by pteroside derivatives.

[2] = molecular target: T1, BACE1 (human recombinant β-secretase); assay: In vitro BACE1 FRET enzyme assay; type: biochemical; settings: mean ± S.D. of three experiments
Excerpt: BACE1 (human recombinant β-secretase) ([…]) and the BACE1 FRET (fluorescence resonance energy transfer) assay kit Red were purchased from ThermoFisher Scientific (P2985; Waltham, MA, USA). […] For the cell culture experiment, Dulbecco’s modified Eagle’s medium (DMEM), Opti-MEM, fetal bovine serum (FBS), and penicillin/streptomycin were obtained from Capricorn Scientific (Ebsdorfergrund, Germany). β-secretase inhibitor III (β-SI) was purchased from Calbiochem (Darmstadt, Germany). The protease inhibitor mixture (a mixture of AEBSF, pepstatin A, E-64, bestain, leupeptin, and aprotinin) was purchased from Sigma-Aldrich (St. Louis, MO, USA). Enzyme-linked immunosorbent assay (ELISA) kits for Aβ40 and Aβ42 were obtained from IBL (Kunma, Japan). All chemicals and solvents used were reagent grade, purchased from commercial sources, and used as received.
The BACE1 FRET assay was carried out according to the manufacturer’s instructions with slight modifications as previously described. The assay was performed in a […] black plate using a multi-pipette.

in vitro = in vitro ADME; settings: for BBB permeation class: classified by Pe, given in words
Description: PAMPA (parallel artificial membrane permeation assay) was used as a high-throughput assay to predict BBB permeation. Porcine polar brain lipid (PBL) was used as an artificial membrane to predict BBB permeation. Initially, the test compound was dissolved in DMSO at 5 mg/mL. This compound stock solution (10 µL) was diluted 200-fold in a universal buffer at pH 7.4 and mixed with a multi 8-channel pipette to obtain the secondary stock solution (final concentration 25 µg/mL). The secondary stock solution (200 µL) was placed in the donor wells. The filter membrane was coated with PBL in dodecane (4 mL volume of 20 mg/mL PBL in dodecane), and 5 µL of BBB-1 lipid solution was spread on PBL by pipette. The acceptor well was filled with […] of Acceptor Sink Buffer. The acceptor filter plate was cautiously positioned on the donor plate to assemble a “sandwich” (comprising an aqueous acceptor, artificial lipid membrane and aqueous donor with test compound on the top, middle and bottom, respectively). The test compound diffuses from the donor well to the acceptor well through the lipid membrane. After 4 h of incubation at pH 7.4 and 25 °C, the concentration of the compound in the acceptor, donor, reference and blank wells was estimated with a UV plate reader, Epoch Microplate Spectrophotometer (BioTek Instruments, Inc., Winooski, VT, USA). […] Samples were analyzed in quadruplets, and the average of the four runs was reported. To monitor the consistency of the analysis set, quality control standards were run with each sample set.
PAMPA-BBB, an in vitro artificial membrane permeability assay for the BBB, is one of the most reliable physicochemical screening tools in the early stage discovery of CNS-targeted drugs. The PAMPA-BBB system models the transcellular passive diffusion of chemicals across the BBB and measures strictly passive transport mechanisms via an artificial lipid membrane on effective permeability (Pe, cm/s).

horse serum BChE = molecular target: T2, horse serum BChE (Equus caballus, UniProt P81908); assay: Kinetic analysis of BChE inhibition (Dixon and Lineweaver−Burk plots); type: biochemical; settings: for Inhibition type BChE: Dixon and Lineweaver−Burk plots
T2 construct: horse serum BChE (EC 3.1.1.8); purchased Sigma-Aldrich Co; host or cells: horse serum
Description: as §2
Dixon plots for BChE inhibition by pterosin derivatives. (2S,3R)-Pterosin C (A), (2R,3R)-pterosin C (B), and (2R)-pterosin B (C) were tested in the presence of substrate concentrations of 0.2 mM (●), 0.4 mM (○), and 0.8 mM (▼).
Dixon plots for BChE inhibition by pteroside derivatives. (2R)-pteroside B (A), (2R,3R)-pteroside C (B), and (3S)-pteroside D (C) were tested in the presence of substrate concentrations of 0.2 mM (●), 0.4 mM (○), and 0.8 mM (▼). Lineweaver-Burk plots for BChE inhibition were generated with inhibitor concentrations of 0 µM (Δ), 4 µM (▼), 20 µM (○), and 100 µM (●) for (2R)-pteroside B (D); 0 µM (Δ), 0.8 µM (▼), 4 µM (○), and 20 µM (●) for (2R,3R)-pteroside C (E) and (3S)-pteroside D (F).

Electric eel AChE = molecular target: T3, Electric eel AChE (Electrophorus electricus, UniProt O42275); assay: In vitro cholinesterase enzyme assay (Ellman), AChE; type: biochemical
T3 construct: purchased Sigma-Aldrich Co

[3] = tested on: SH-SY5Y human neuroblastoma; assay: MTT cytotoxicity assay, SH-SY5Y; type: cell-based; settings: 24 h
Description: as §1

[4] = tested on: NIH3T3 mouse embryo fibroblasts; assay: MTT cytotoxicity assay, NIH3T3; type: cell-based; settings: 24 h
Description: as §1

T3 sequence (O42275 24-633): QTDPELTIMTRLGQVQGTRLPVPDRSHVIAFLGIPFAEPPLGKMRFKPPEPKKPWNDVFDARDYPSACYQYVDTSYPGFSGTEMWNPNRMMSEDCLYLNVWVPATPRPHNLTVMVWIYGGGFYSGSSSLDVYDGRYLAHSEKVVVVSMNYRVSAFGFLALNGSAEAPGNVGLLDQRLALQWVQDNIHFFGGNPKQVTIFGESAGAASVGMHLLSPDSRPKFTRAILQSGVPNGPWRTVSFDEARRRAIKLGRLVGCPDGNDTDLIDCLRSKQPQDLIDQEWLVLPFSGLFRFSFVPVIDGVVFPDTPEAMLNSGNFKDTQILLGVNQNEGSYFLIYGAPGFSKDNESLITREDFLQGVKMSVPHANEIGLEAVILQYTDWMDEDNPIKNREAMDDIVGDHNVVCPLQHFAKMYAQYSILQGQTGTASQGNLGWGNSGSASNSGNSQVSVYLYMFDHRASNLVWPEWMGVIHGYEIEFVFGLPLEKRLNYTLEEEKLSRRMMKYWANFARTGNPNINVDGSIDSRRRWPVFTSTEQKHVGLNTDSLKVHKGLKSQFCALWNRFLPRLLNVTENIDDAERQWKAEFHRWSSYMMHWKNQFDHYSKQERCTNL
T1 sequence (P56817 46-501): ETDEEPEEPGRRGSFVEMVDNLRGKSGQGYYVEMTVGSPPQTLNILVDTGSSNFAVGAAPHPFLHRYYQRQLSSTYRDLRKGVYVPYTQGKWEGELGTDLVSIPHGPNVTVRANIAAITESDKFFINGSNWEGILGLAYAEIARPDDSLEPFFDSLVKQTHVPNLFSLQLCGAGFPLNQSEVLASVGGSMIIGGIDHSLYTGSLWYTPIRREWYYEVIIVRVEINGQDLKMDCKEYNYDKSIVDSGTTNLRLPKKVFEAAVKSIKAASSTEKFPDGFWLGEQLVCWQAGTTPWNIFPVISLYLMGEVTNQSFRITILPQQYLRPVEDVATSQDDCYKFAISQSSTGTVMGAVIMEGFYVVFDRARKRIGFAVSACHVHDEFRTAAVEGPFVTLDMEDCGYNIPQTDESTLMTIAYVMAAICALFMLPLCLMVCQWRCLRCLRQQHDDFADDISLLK
T2 sequence (P81908 whole entry): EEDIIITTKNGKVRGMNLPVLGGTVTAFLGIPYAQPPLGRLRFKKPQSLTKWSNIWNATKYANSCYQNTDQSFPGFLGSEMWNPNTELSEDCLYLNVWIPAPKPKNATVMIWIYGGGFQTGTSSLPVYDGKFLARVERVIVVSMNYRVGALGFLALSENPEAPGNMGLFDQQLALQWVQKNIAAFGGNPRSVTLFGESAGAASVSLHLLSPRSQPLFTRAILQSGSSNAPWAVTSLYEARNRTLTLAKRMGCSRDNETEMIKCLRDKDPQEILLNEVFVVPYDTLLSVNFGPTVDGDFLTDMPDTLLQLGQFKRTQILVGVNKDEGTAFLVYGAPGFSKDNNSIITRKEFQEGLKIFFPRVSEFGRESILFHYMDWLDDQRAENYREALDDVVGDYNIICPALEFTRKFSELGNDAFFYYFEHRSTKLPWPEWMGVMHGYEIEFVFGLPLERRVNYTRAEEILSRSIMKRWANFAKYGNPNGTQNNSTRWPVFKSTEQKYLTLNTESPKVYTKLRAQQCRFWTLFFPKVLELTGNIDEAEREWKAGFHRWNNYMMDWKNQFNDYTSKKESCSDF

Cc1cc2c(c(C)c1CCO)C(=O)[C@H](C)C2 [(2R)-Pterosin B, (2R)-pterosin B]
LD50 Based on MTT Assay, B16F10 (B16F10 mouse melanoma): >5,000 µM | Ki [1]: 38.3 µM | Inhibition type BACE1 [1]: Noncompetitive | IC50 [2]: 29.6 ± 3.5 µM | Pe fold higher than verapamil (in vitro; PAMPA-BBB): 1.7 fold | BBB permeation class (in vitro; PAMPA-BBB): high BBB permeation | Pe fold higher than quercetin (in vitro; from log Pe −4.22 versus literature log Pe of quercetin): approximately 600 fold | Pe fold higher than berberine (in vitro; from log Pe −4.22 versus log Pe −5.8 of berberine): approximately 37 fold | Papp at 4 h, 25 µg/mL (in vitro; pig, PAMPA, 4 h, pH 7.4, 25 °C, mean ± SD of quadruple experiments, read-out: PAMPA-BBB permeability Pe): 60.3 ± 9.8 ×10⁻⁶ cm/s | Ki (horse serum BChE): 53.5 µM | Inhibition type BChE (horse serum BChE): Noncompetitive | IC50 (Electric eel AChE): 16.2 ± 1 µM | AChE-inhibitory activity fold lower than berberine (Electric eel AChE; ratio of IC50): approximately 40 fold | LD50 Based on MTT Assay, SY-SY5Y [3]: >5,000 µM | LD50 Based on MTT Assay, NIH3T3 [4]: >5,000 µM

Cc1cc2c(c(C)c1CCOC1OC(CO)C(O)C(O)C1O)C(=O)C(C)C2O [(2R,3R)-Pteroside C, (2R,3R)-pteroside C]
LD50 Based on MTT Assay, B16F10 (B16F10 mouse melanoma): >5,000 µM | Inhibition type BACE1 [1]: Mixed-type | Ki ([1]; determined by Dixon plot, read-out: Ki BACE1): 12.6 µM | IC50 [2]: 9.74 ± 1.9 µM | BBB permeation class (in vitro; PAMPA-BBB): very low BBB permeability | Inhibition type BChE (horse serum BChE): Mixed-type | Ki (horse serum BChE; determined by Dixon plot, read-out: Ki BChE): 9.62 µM | IC50 (Electric eel AChE; mean ± S.D. of three experiments, read-out: IC50 AChE): 3.77 ± 0.38 µM | LD50 Based on MTT Assay, SY-SY5Y [3]: >5,000 µM | LD50 Based on MTT Assay, NIH3T3 [4]: >5,000 µM
